Measured values reported in the supplement of paper PMC10307832.

Legend:
Test in all cases: relative viability (nuclei count vs DMSO), 5 days (fraction); higher = more cells survive
BEN = system: BEN
Outline: (§1)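 Dosing by pin tool came one day after lung cancer cell lines were seeded in 1536-well plates, using either one drug or a fixed anchor-drug dose plus five library-drug doses (not always all listed) in √10 steps. After 5 days, nuclei were counted on 4× images. Relative viability is treated-well nuclei count divided by vehicle-well nuclei count, and values are medians of duplicate plates.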

ChaGo-K-1 = system: ChaGo-K-1
Outline: as §1

HCC-78 = system: HCC-78
Outline: as §1

LC-2-ad = system: LC-2-ad
Outline: as §1

LCLC-97TM1 = system: LCLC-97TM1
Outline: as §1

LK-2 = system: LK-2
Outline: as §1

LU99A = system: LU99A
Outline: as §1

LXF-289 = system: LXF-289
Outline: as §1

NCI-H1355 = system: NCI-H1355
Outline: as §1

NCI-H1651 = system: NCI-H1651
Outline: as §1

NCI-H1666 = system: NCI-H1666
Outline: as §1

NCI-H1944 = system: NCI-H1944
Outline: as §1

NCI-H1975 = system: NCI-H1975
Outline: as §1

NCI-H2087 = system: NCI-H2087
Outline: as §1

NCI-H2342 = system: NCI-H2342
Outline: as §1

NCI-H358 = system: NCI-H358
Outline: as §1

NCI-H596 = system: NCI-H596
Outline: as §1

NCI-H650 = system: NCI-H650
Outline: as §1

NCI-H661 = system: NCI-H661
Outline: as §1

NCI-H838 = system: NCI-H838
Outline: as §1

PC-3 [JPC-3] = system: PC-3 [JPC-3]
Outline: as §1

SK-MES-1 = system: SK-MES-1
Outline: as §1

Question: What does the source list for COc1nc(C)cnc1NS(=O)(=O)c1cccnc1-c1ccc(-c2nnco2)cc1 [Zibotentan] + COc1cc2c(Oc3ccc(NC(=O)C4(C(=O)Nc5ccc(F)cc5)CC4)cc3F)ccnc2cc1OCCCN1CCOCC1 [Foretinib] (partner 0.25 µM)?
Answer: relative viability (BEN; first compound 0.08 µM): 0.739; relative viability (BEN; first compound 0.253 µM): 0.475; relative viability (BEN; first compound 0.8 µM): 0.819; relative viability (BEN; first compound 2.53 µM): 0.639; relative viability (ChaGo-K-1; first compound 0.08 µM): 0.941; relative viability (ChaGo-K-1; first compound 0.253 µM): 0.926; relative viability (ChaGo-K-1; first compound 0.8 µM): 0.977; relative viability (ChaGo-K-1; first compound 2.53 µM): 0.841; relative viability (HCC-78; first compound 0.08 µM): 0.535; relative viability (HCC-78; first compound 0.253 µM): 0.484; relative viability (HCC-78; first compound 0.8 µM): 0.588; relative viability (HCC-78; first compound 2.53 µM): 0.518; relative viability (LC-2-ad; first compound 0.08 µM): 1.02; relative viability (LC-2-ad; first compound 0.8 µM): 0.955; relative viability (LC-2-ad; first compound 2.53 µM): 0.954; relative viability (LCLC-97TM1; first compound 0.08 µM): 1.01; relative viability (LCLC-97TM1; first compound 0.253 µM): 0.891; relative viability (LCLC-97TM1; first compound 0.8 µM): 1; relative viability (LCLC-97TM1; first compound 2.53 µM): 0.926; relative viability (LK-2; first compound 0.08 µM): 1.37; relative viability (LK-2; first compound 0.253 µM): 1.31; relative viability (LK-2; first compound 0.8 µM): 0.895; relative viability (LK-2; first compound 2.53 µM): 1.17; relative viability (LU99A; first compound 0.08 µM): 0.953; relative viability (LU99A; first compound 0.253 µM): 0.8; relative viability (LU99A; first compound 0.8 µM): 0.888; relative viability (LU99A; first compound 2.53 µM): 0.918; relative viability (LXF-289; first compound 0.08 µM): 0.965; relative viability (LXF-289; first compound 0.253 µM): 0.95; relative viability (LXF-289; first compound 0.8 µM): 1.05; relative viability (LXF-289; first compound 2.53 µM): 0.954; relative viability (NCI-H1355; first compound 0.08 µM): 0.988; relative viability (NCI-H1355; first compound 0.253 µM): 1.02; relative viability (NCI-H1355; first compound 0.8 µM): 0.955; relative viability (NCI-H1355; first compound 2.53 µM): 0.927; relative viability (NCI-H1651; first compound 0.08 µM): 0.815; relative viability (NCI-H1651; first compound 0.253 µM): 0.569; relative viability (NCI-H1651; first compound 0.8 µM): 0.488; relative viability (NCI-H1651; first compound 2.53 µM): 0.99; relative viability (NCI-H1666; first compound 0.08 µM): 0.902; relative viability (NCI-H1666; first compound 0.253 µM): 0.918; relative viability (NCI-H1666; first compound 0.8 µM): 0.938; relative viability (NCI-H1666; first compound 2.53 µM): 0.972; relative viability (NCI-H1944; first compound 0.08 µM): 1.02; relative viability (NCI-H1944; first compound 0.253 µM): 0.806; relative viability (NCI-H1944; first compound 0.8 µM): 0.898; relative viability (NCI-H1944; first compound 2.53 µM): 0.908; relative viability (NCI-H1975; first compound 0.08 µM): 0.98; relative viability (NCI-H1975; first compound 0.253 µM): 0.849; relative viability (NCI-H1975; first compound 0.8 µM): 0.824; relative viability (NCI-H1975; first compound 2.53 µM): 0.856; relative viability (NCI-H2087; first compound 0.08 µM): 1.22; relative viability (NCI-H2087; first compound 0.253 µM): 1.04; relative viability (NCI-H2087; first compound 0.8 µM): 1.16; relative viability (NCI-H2087; first compound 2.53 µM): 1.04; relative viability (NCI-H2342; first compound 0.08 µM): 1.08; relative viability (NCI-H2342; first compound 0.253 µM): 0.954; relative viability (NCI-H2342; first compound 0.8 µM): 1.03; relative viability (NCI-H2342; first compound 2.53 µM): 1.13; relative viability (NCI-H358; first compound 0.08 µM): 0.809; relative viability (NCI-H358; first compound 0.253 µM): 0.485; relative viability (NCI-H358; first compound 0.8 µM): 0.595; relative viability (NCI-H358; first compound 2.53 µM): 0.57; relative viability (NCI-H596; first compound 0.08 µM): 0.899; relative viability (NCI-H596; first compound 0.253 µM): 0.794; relative viability (NCI-H596; first compound 0.8 µM): 0.768; relative viability (NCI-H596; first compound 2.53 µM): 0.914; relative viability (NCI-H650; first compound 0.08 µM): 1.1; relative viability (NCI-H650; first compound 0.253 µM): 0.877; relative viability (NCI-H650; first compound 0.8 µM): 1.07; relative viability (NCI-H650; first compound 2.53 µM): 0.994; relative viability (NCI-H661; first compound 0.08 µM): 1.01; relative viability (NCI-H661; first compound 0.253 µM): 0.969; relative viability (NCI-H661; first compound 0.8 µM): 0.995; relative viability (NCI-H661; first compound 2.53 µM): 1.01; relative viability (NCI-H838; first compound 0.08 µM): 0.992; relative viability (NCI-H838; first compound 0.253 µM): 0.934; relative viability (NCI-H838; first compound 0.8 µM): 1.06; relative viability (NCI-H838; first compound 2.53 µM): 1.08; relative viability (PC-3 [JPC-3]; first compound 0.08 µM): 1.05; relative viability (PC-3 [JPC-3]; first compound 0.253 µM): 1.05; relative viability (PC-3 [JPC-3]; first compound 0.8 µM): 1.03; relative viability (PC-3 [JPC-3]; first compound 2.53 µM): 0.973; relative viability (SK-MES-1; first compound 0.08 µM): 0.974; relative viability (SK-MES-1; first compound 0.253 µM): 0.886; relative viability (SK-MES-1; first compound 0.8 µM): 0.974; relative viability (SK-MES-1; first compound 2.53 µM): 1.02
